Here are results for 22 molecules from US20060100431A1, “Biologically active compounds” (Amura Therapeutics Limited, priority 2002, published 2006).

Like-named read-outs stand apart in the source and are kept apart here.

The target in one assay is T1, CPB2.8ΔCTE (Leishmania mexicana, UniProt P36400).
T1 construct: Wild-type recombinant CPB without the C-terminal extention (i.e. CPB2.8ΔCTE); Dr. Jeremy Mottram (Wellcome Centre for Molecular Parasitology, University of Glasgow)
The assay is described as follows: Leishmania mexicana cysteine protease B (CPB) peptidase activity assay (Ki). The assay is classed as biochemical. The settings on record: Ki, inhibitors of Leismania mexicana CPB protease. The essentials:
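Apparent Ki was derived by regression of activity against inhibitor concentration, assuming pure-competitive reversible binding. Reaction: 0.25 nM CPB lacking the C-terminal extension, pH 5.5 acetate buffer (1 mM EDTA, 200 mM NaCl, 10 mM DTT), 25 °C, followed by continuous substrate fluorescence.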

A further assay has as its target Wild-type cruzipain (Trypanosoma cruzi, UniProt P25779). The assay is described as follows: Trypanosoma cruzi cruzipain peptidase activity assay (Ki). It counts as biochemical. In short, it runs like this:
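Native cruzipain from T. cruzi Dm28 epimastigotes, 2.5 nM, in 100 mM sodium phosphate pH 6.75 with 1 mM EDTA and 10 mM L-cysteine, 25 °C, DMSO <1%. Rates taken from continuous fluorogenic substrate read; Ki by regression assuming reversible pure-competitive inhibition.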

The mark [1] stands for this setting: read-out: Ki, inhibitors of cruzain and cruzipains.

T1 sequence (P36400 126-343, stated change not applied): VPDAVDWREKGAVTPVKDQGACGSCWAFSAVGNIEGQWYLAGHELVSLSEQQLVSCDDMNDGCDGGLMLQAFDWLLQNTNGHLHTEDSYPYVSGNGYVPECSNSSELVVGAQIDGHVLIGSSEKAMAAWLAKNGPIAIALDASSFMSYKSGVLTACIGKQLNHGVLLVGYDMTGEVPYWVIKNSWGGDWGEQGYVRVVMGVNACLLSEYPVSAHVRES
Sequence of Wild-type cruzipain (P25779 whole entry): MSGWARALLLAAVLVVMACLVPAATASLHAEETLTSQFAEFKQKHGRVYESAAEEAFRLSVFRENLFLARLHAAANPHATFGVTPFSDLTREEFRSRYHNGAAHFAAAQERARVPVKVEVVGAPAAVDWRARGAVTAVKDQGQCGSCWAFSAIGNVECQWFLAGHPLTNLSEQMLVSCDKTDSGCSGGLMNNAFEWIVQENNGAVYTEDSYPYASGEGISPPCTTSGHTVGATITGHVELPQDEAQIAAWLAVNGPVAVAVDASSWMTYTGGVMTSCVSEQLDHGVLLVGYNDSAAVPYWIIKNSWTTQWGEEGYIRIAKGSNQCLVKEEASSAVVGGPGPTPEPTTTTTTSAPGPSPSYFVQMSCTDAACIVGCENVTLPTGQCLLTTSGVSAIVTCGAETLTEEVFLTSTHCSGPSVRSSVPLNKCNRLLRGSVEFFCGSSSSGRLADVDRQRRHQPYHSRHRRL

As for `CC(C)C[C@H](NC(=O)c1ccc(C(C)(C)C)cc1)C(=O)N1CC[C@@H]2[C@H]1C(=O)CN2C(=O)c1cccnc1` [Example 5, (3aR,6aS)-4-tert-Butyl-N-{(1S)-3-methyl-1-[6-oxo-4-(pyridine-3-carbonyl)-hexahydro-pyrrolo[3,2-b]pyrrole-1-carbonyl]-butyl}-benzamide], the inhibition constant (Ki) at CPB2.8ΔCTE and at Wild-type cruzipain (setting [1]) was below 5 µM throughout.

Take `CC(C)C[C@H](NC(=O)c1ccc(N(C)C)cc1)C(=O)N1CC[C@@H]2[C@H]1C(=O)CN2C(=O)[C@@H](N)CC(C)C` [Example 150, (3aR,6aS)-N-{(1S)-1-[4-((2S)-2-Amino-4-methyl-pentanoyl)-6-oxo-hexahydro-pyrrolo[3,2-b]pyrrole-1-carbonyl]-3-methyl-butyl}-4-dimethylamino-benzamide]: the inhibition constant Ki at CPB2.8ΔCTE and on Wild-type cruzipain (setting [1]) was below 5 µM throughout.

`CC(C)CCC(=O)N1CC(=O)[C@@H]2[C@H]1CCN2C(=O)[C@H](CC(C)C)NC(=O)c1ccc(C(C)(C)C)cc1` [Example 191, (3aR,6aS)-4-tert-Butyl-N-{(1S)-3-methyl-1-[4-(4-methyl-pentanoyl)-6-oxo-hexahydro-pyrrolo[3,2-b]pyrrole-1-carbonyl]-butyl}-benzamide]: the Ki at CPB2.8ΔCTE and on Wild-type cruzipain (setting [1]) was below 5 µM each time.

In the case of `CC(C)C[C@H](NC(=O)c1ccc(N(C)C)cc1)C(=O)N1CC[C@@H]2[C@H]1C(=O)CN2C(=O)Nc1ccccc1` [Example 167, (3aS,6aR)-4-[(2S)-2-(4-Dimethylamino-benzoylamino)-4-methyl-pentanoyl]-3-oxo-hexahydro-pyrrolo[3,2-b]pyrrole-1-carboxylic acid phenylamide], the Ki at CPB2.8ΔCTE and on Wild-type cruzipain (setting [1]) was below 5 µM each time.

For `CC(C)C[C@H](NC(=O)c1ccc(N(C)C)cc1)C(=O)N1CC[C@@H]2[C@H]1C(=O)CN2C(=O)CC1CCCCC1` [Example 137, (3aR,6aS)-N-{(1S)-1-[4-(2-Cyclohexyl-acetyl)-6-oxo-hexahydro-pyrrolo[3,2-b]pyrrole-1-carbonyl]-3-methyl-butyl}-4-dimethylamino-benzamide], the Ki on CPB2.8ΔCTE and at Wild-type cruzipain (setting [1]) was below 5 µM throughout.

Regarding `CC[C@H](C)[C@H](N)C(=O)N1CC(=O)[C@@H]2[C@H]1CCN2C(=O)[C@H](CC(C)C)NC(=O)c1ccc(N(C)C)cc1` [Example 209, (3aR,6aS)-N-{(1S)-1-[4-((2S,3S)-2-Amino-3-methyl-pentanoyl)-6-oxo-hexahydro-pyrrolo[3,2-b]pyrrole-1-carbonyl]-3-methyl-butyl}-4-dimethylamino-benzamide], the Ki at CPB2.8ΔCTE and at Wild-type cruzipain (setting [1]) was below 5 µM in each case.

In the case of `CC(C)C[C@H](NC(=O)c1ccc(N(C)C)cc1)C(=O)N1CC[C@@H]2[C@H]1C(=O)CN2C(=O)c1cccs1` [Example 95, (3aR,6aS)-4-Dimethylamino-N-{(1S)-3-methyl-1-[6-oxo-4-(thiophene-2-carbonyl)-hexahydro-pyrrolo[3,2-b]pyrrole-1-carbonyl]-butyl}-benzamide], the Ki at CPB2.8ΔCTE and on Wild-type cruzipain (setting [1]) was below 5 µM in each case.

On to `CCCCCCC(=O)N1CC(=O)[C@@H]2[C@H]1CCN2C(=O)[C@H](CC(C)C)NC(=O)c1ccc(N(C)C)cc1` [Example 136, (3aR,6aS)-4-Dimethylamino-N-[(1S)-1-(4-heptanoyl-6-oxo-hexahydro-pyrrolo[3,2-b]pyrrole-1-carbonyl)-3-methyl-butyl]-benzamide], for which the Ki at CPB2.8ΔCTE and on Wild-type cruzipain (setting [1]) was below 5 µM each time.

Turning to `CC(C)C[C@H](NC(=O)c1ccc(C(C)(C)C)cc1)C(=O)N1CC[C@@H]2[C@H]1C(=O)CN2C(=O)c1ccncc1` [Example 6, (3aR,6aS)-4-tert-Butyl-N-{(1S)-3-methyl-1-[6-oxo-4-(pyridine-4-carbonyl)-hexahydro-pyrrolo[3,2-b]pyrrole-1-carbonyl]-butyl}-benzamide], the Ki at CPB2.8ΔCTE and at Wild-type cruzipain (setting [1]) was below 5 µM throughout.

With `CC(C)C[C@H](NC(=O)c1ccc(N(C)C)cc1)C(=O)N1CC[C@@H]2[C@H]1C(=O)CN2C(=O)[C@@H](N)[C@@H](C)O` [Example 207, (3aR,6aS)-N-{(1S)-1-[4-((2S,3R)-2-Amino-3-hydroxy-butyryl)-6-oxo-hexahydro-pyrrolo[3,2-b]pyrrole-1-carbonyl]-3-methyl-butyl}-4-dimethylamino-benzamide], the Ki on CPB2.8ΔCTE and at Wild-type cruzipain (setting [1]) was below 5 µM in each case.

Turning to `CC(C)C[C@H](NC(=O)c1ccc(N(C)C)cc1)C(=O)N1CC[C@@H]2[C@H]1C(=O)CN2C(=O)[C@H](Cc1ccccc1)NC(=O)OCc1ccccc1` [Example 160, (3aS,6aR)-((1S)-1-Benzyl-2-{-[(2S)-2-(4-dimethylamino-benzoylamino)-4-methyl-pentanoyl]-3-oxo-hexahydro-pyrrolo[3,2-b]pyrrole-1-yl}-2-oxo-ethyl)-carbamic acid benzyl ester], the inhibitory constant (Ki) on CPB2.8ΔCTE and at Wild-type cruzipain (setting [1]) was below 5 µM each time.

As to `COc1ccccc1C(=O)N1CC(=O)[C@@H]2[C@H]1CCN2C(=O)[C@H](CC(C)C)NC(=O)c1ccc(N(C)C)cc1` [Example 64, (3aR,6aS)-4-Dimethylamino-N-{(1S)-1-[4-(2-methoxy-benzoyl)-6-oxo-hexahydro-pyrrolo[3,2-b]pyrrole-1-carbonyl]-3-methyl-butyl}-benzamide], the inhibitory constant (Ki) at CPB2.8ΔCTE and at Wild-type cruzipain (setting [1]) was below 5 µM each time.

In the case of `CC(C)C[C@H](NC(=O)c1ccc(N(C)C)cc1)C(=O)N1CC[C@@H]2[C@H]1C(=O)CN2C(=O)[C@H](CO)NC(=O)OCc1ccccc1` [Example 147, (3aS,6aR)-((1S)-2-{4-[(2S)-2-(4-Dimethylamino-benzoylamino)-4-methyl-pentanoyl]-3-oxo-hexahydro-pyrrolo[3,2-b]pyrrole-1-yl}-1-hydroxymethyl-2-oxo-ethyl)-carbamic acid benzyl ester], the inhibitory constant (Ki) on CPB2.8ΔCTE and on Wild-type cruzipain (setting [1]) was below 5 µM in each case.

`CC(C)CC(=O)N1CC(=O)[C@@H]2[C@H]1CCN2C(=O)[C@H](CC(C)C)NC(=O)c1ccc(N(C)C)cc1` [Example 130, (3aR,6aS)-4-Dimethylamino-N-{(1S)-3-methyl-1-[4-(3-methyl-butyryl)-6-oxo-hexahydro-pyrrolo[3,2-b]pyrrole-1-carbonyl]-butyl}-benzamide]: the inhibition constant (Ki) at CPB2.8ΔCTE and at Wild-type cruzipain (setting [1]) was below 5 µM throughout.

With `CC(C)C[C@H](NC(=O)c1ccc(C(C)(C)C)cc1)C(=O)N1CC[C@@H]2[C@H]1C(=O)CN2C(=O)Nc1ccccc1` [Example 190, (3aS,6aR)-4-(2S-2-(4-tert-Butyl-benzoylamino)-4-methyl-pentanoyl]-3-oxo-hexahydro-pyrrolo[3,2-b]pyrrole-1-carboxylic acid phenylamide], the Ki at CPB2.8ΔCTE and at Wild-type cruzipain (setting [1]) was below 5 µM in each case.

Consider `CC(C)CCC(=O)N1CC(=O)[C@@H]2[C@H]1CCN2C(=O)[C@H](CC(C)C)NC(=O)c1ccc(N(C)C)cc1` [Example 105, (3aR,6aS)-4-Dimethylamino-N-{(1S)-3-methyl-1-[4-(4-methyl-pentanoyl)-6-oxo-hexahydro-pyrrolo[3,2-b]pyrrole-1-carbonyl]-butyl}-benzamide], for which the inhibitory constant (Ki) at CPB2.8ΔCTE and at Wild-type cruzipain (setting [1]) was below 5 µM throughout.

As to `CC(C)C[C@H](NC(=O)c1ccc(N(C)C)cc1)C(=O)N1CC[C@@H]2[C@H]1C(=O)CN2C(=O)c1cccnc1` [Example 21, (3aR,6aS)-4-Dimethylamino-N-{(1S)-3-methyl-1-[6-oxo-4-(pyridine-3-carbonyl)-hexahydro-pyrrolo[3,2-b]pyrrole-1-carbonyl]-butyl}-benzamide], the inhibition constant Ki at CPB2.8ΔCTE and on Wild-type cruzipain (setting [1]) was below 5 µM each time.

As to `CC(C)C[C@H](NC(=O)c1ccc(N(C)C)cc1)C(=O)N1CC[C@@H]2[C@H]1C(=O)CN2C(=O)c1ccc(Oc2ccccc2)cc1` [Example 56, (3aR,6aS)-4-Dimethylamino-N-{(1S)-3-methyl-1-[6-oxo-4-(4-phenoxy-benzoyl)-hexahydro-pyrrolo[3,2-b]pyrrole-1-carbonyl]-butyl}-benzamide], the Ki at CPB2.8ΔCTE and at Wild-type cruzipain (setting [1]) was below 5 µM throughout.

Take `CC(C)C[C@H](NC(=O)c1ccc(N(C)C)cc1)C(=O)N1CC[C@@H]2[C@H]1C(=O)CN2C(=O)c1ccco1` [Example 96, (3aR,6aS)-4-Dimethylamino-N-{(1S)-1-[4-(furan-2-carbonyl)-6-oxo-hexahydro-pyrrolo[3,2-b]pyrrole-1-carbonyl]-3-methyl-butyl}-benzamide]: the Ki at CPB2.8ΔCTE and at Wild-type cruzipain (setting [1]) was below 5 µM throughout.

Regarding `CC(C)C[C@H](NC(=O)c1ccc(N(C)C)cc1)C(=O)N1CC[C@@H]2[C@H]1C(=O)CN2C(=O)C1CCCC1` [Example 134, (3aR,6aS)-N-[(1S)-1-(4-Cyclopentanecarbonyl-6-oxo-hexahydro-pyrrolo[3,2-b]pyrrole-1-carbonyl)-3-methyl-butyl]-4-dimethylamino-benzamide], the Ki at CPB2.8ΔCTE and at Wild-type cruzipain (setting [1]) was below 5 µM throughout.

Regarding `CC(C)C[C@H](NC(=O)c1ccc(C(C)(C)C)cc1)C(=O)N1CC[C@@H]2[C@H]1C(=O)CN2C(=O)c1ccccc1` [Example 1, (3aR,6aS)-N-[(1S)-1-(4-Benzoyl-6-oxo-hexahydro-pyrrolo[3,2-b]pyrrole-1-carbonyl)-3-methyl-butyl]-4-tert-butylbenzamide], the inhibition constant (Ki) at CPB2.8ΔCTE and on Wild-type cruzipain was below 5 µM each time.

Turning to `CC(C)C[C@H](NC(=O)c1ccc(N(C)C)cc1)C(=O)N1CC[C@@H]2[C@H]1C(=O)CN2C(=O)c1ccc(N)cc1` [Example 50, (3aR,6aS)-N-{(1S)-1-[4-(4-Amino-benzoyl)-6-oxo-hexahydro-pyrrolo[3,2-b]pyrrole-1-carbonyl]-3-methyl-butyl}-4-dimethylamino-benzamide], the Ki at CPB2.8ΔCTE and at Wild-type cruzipain (setting [1]) was below 5 µM in each case.
